Source: patent US20240158446A1, “CYCLIC COMPOUND HAVING SELECTIVE INHIBITORY ACTION ON KRAS OVER HRAS AND NRAS” (CHUGAI SEIYAKU KABUSHIKI KAISHA, priority 2021, published 2024)

Experiments:
[1] = tested on: human lung cancer strain NCI-H441; test: cells; conditions: NCI-H441, 96 h, read-out: NCI-H441 IC50 (nM), NCI-H441 cell proliferation, 4 days, CellTiter-Glo;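 also: cell proliferation inhibition after four days measured by CellTiter-Glo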
[2] = molecular target: GDP-bound HRAS wild-type protein (Homo sapiens, UniProt P01112); test: Binding to HRAS by surface plasmon resonance (SPR), Single Cycle Kinetics; conditions: ratio of KD for GDP-bound HRAS wild-type protein to KD for KRAS, SPR
[3] = molecular target: GDP-bound NRAS wild-type protein (Homo sapiens, UniProt P01111); test: Binding to NRAS by surface plasmon resonance (SPR), Single Cycle Kinetics; conditions: ratio of KD for GDP-bound NRAS wild-type protein to KD for KRAS, SPR
Sequence of GDP-bound NRAS wild-type protein (P01111 whole entry): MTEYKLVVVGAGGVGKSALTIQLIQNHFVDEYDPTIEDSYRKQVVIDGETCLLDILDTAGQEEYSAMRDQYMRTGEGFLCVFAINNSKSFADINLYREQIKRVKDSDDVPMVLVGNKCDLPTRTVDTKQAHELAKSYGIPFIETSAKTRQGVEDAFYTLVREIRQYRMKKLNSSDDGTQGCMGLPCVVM

Sequence of GDP-bound HRAS wild-type protein (P01112 whole entry): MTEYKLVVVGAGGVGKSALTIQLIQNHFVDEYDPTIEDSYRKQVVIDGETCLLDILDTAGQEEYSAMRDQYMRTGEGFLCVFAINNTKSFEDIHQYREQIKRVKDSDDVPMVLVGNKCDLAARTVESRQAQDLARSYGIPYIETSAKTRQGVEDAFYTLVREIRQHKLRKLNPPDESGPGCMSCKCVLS

`CCO[C@@H]1C[C@H]2C(=O)NC3(CCC3)C(=O)N(C)[C@@H](C(CC)CC)C(=O)N(C)[C@H](C3CCC3)CC(=O)N(C)[C@@H](CC3CC3)C(=O)N[C@@H]([C@@H](C)CC)C(=O)N(C)CC(=O)N(C)[C@H]3C/C=C\CCN(C3=O)[C@@H](Cc3ccc(C(F)(F)F)cc3)C(=O)N(C)CC(=O)N[C@@H](CCc3cc(F)c(C(F)(F)F)c(F)c3)C(=O)N2C1` [PP1636] was tested, and the IC50 [1] was 95.2 nM, the “HRAS/KRAS (KD ratio)” value [2] was “A (a compound having 10 or more and less than 20 is denoted as A)” and the “NRAS/KRAS (KD ratio)” value [3] was “A (a compound having 10 or more and less than 20 is denoted as A)”.

For `CCCN(C)C(=O)[C@@H]1CC(=O)N(C)[C@@H](C2CCC2)C(=O)N[C@@H]([C@@H](C)CC)C(=O)N(C)CC(=O)N(C)[C@H]2C/C=C\CCN(C2=O)[C@@H](Cc2ccc(C(F)(F)F)cc2)C(=O)N(C)CC(=O)N[C@@H](CCc2cc(F)c(C(F)(F)F)c(F)c2)C(=O)N2C[C@H](OCC)C[C@H]2C(=O)NC2(CCC2)C(=O)N(C)[C@@H](C2CCCC2)C(=O)N1C` [PP1998], the IC50 [1] was 16.1 nM, the “HRAS/KRAS (KD ratio)” value [2] was “B (a compound having 3 or more and less than 10 is denoted as B)” and the “NRAS/KRAS (KD ratio)” value [3] was “A (a compound having 10 or more and less than 20 is denoted as A)”.

`CC[C@H](C)[C@@H]1NC(=O)[C@H](CC2CC2)N(C)C(=O)C[C@@H](C(=O)N(C)C)N(C)C(=O)[C@H](C2CCCC2)N(C)C(=O)C2(CCC2)N(C)C(=O)[C@@H]2C[C@@H](C)CN2C(=O)[C@H](CCc2cc(F)c(C(F)(F)F)c(F)c2)NC(=O)CN(C)C(=O)[C@H](Cc2ccc(C)cc2)N2CC/C=C\C[C@@H](C2=O)N(C)C(=O)CN(C)C1=O` [PP1800] was tested, and the IC50 [1] was 6.5 nM, the “HRAS/KRAS (KD ratio)” value [2] was “A (a compound having 10 or more and less than 20 is denoted as A)” and the “NRAS/KRAS (KD ratio)” value [3] was “A (a compound having 10 or more and less than 20 is denoted as A)”.

For `CC[C@H](C)[C@@H]1NC(=O)[C@H](CC2CC2)N(C)C(=O)C[C@@H](C(=O)N(C)C)N(C)C(=O)[C@H](C2CCCC2)N(C)C(=O)C2(CC(C)(C)C2)NC(=O)[C@@H]2C[C@@H](C)CN2C(=O)[C@H](CCc2ccc(C(F)(F)F)c(OC)c2)NC(=O)CN(C)C(=O)[C@H](Cc2ccc(C)cc2)N2CC/C=C\C[C@@H](C2=O)N(C)C(=O)CN(C)C1=O` [PP1901], the IC50 [1] was 7.6 nM, the “HRAS/KRAS (KD ratio)” value [2] was “B (a compound having 3 or more and less than 10 is denoted as B)” and the “NRAS/KRAS (KD ratio)” value [3] was “A (a compound having 10 or more and less than 20 is denoted as A)”.

For `CC[C@H](C)[C@@H]1NC(=O)[C@H](CC(C)C)N(C)C(=O)C[C@@H](C(=O)N(CC)CC)N(C)C(=O)[C@H](C2CCCC2)N(C)C(=O)C2(CCC2)NC(=O)[C@@H]2C[C@@H](C)CN2C(=O)[C@H](CCc2ccc(C(F)(F)F)c(OC)c2)NC(=O)CN(C)C(=O)[C@H](Cc2ccc(C)cc2)N2CC/C=C\C[C@@H](C2=O)N(C)C(=O)CN(C)C1=O` [PP1849], the IC50 [1] was 37.1 nM, the “HRAS/KRAS (KD ratio)” value [2] was “A (a compound having 10 or more and less than 20 is denoted as A)” and the “NRAS/KRAS (KD ratio)” value [3] was “A (a compound having 10 or more and less than 20 is denoted as A)”.

For `CCO[C@@H]1C[C@H]2C(=O)N(C)C3(CCC3)C(=O)N(C)[C@@H](C3CCCC3)C(=O)N(C)[C@H](C(=O)N(C)C)CC(=O)N(C)[C@@H](CC3CC3)C(=O)N[C@@H]([C@@H](C)CC)C(=O)N(C)CC(=O)N(C)[C@H]3C/C=C\CCN(C3=O)[C@@H](Cc3ccc(C)cc3)C(=O)N(C)CC(=O)N[C@@H](CCc3cc(F)c(C(F)(F)F)c(F)c3)C(=O)N2C1` [PP1795], the IC50 [1] was 3 nM, the “HRAS/KRAS (KD ratio)” value [2] was “B (a compound having 3 or more and less than 10 is denoted as B)” and the “NRAS/KRAS (KD ratio)” value [3] was “A (a compound having 10 or more and less than 20 is denoted as A)”.

With `CCO[C@@H]1C[C@H]2C(=O)NC3(CC(C)(C)C3)C(=O)N(C)[C@@H](C3CCCC3)C(=O)N(C)[C@H](C(=O)N(C)C)CC(=O)N(C)[C@@H](CC3CC3)C(=O)N[C@@H]([C@@H](C)CC)C(=O)N(C)CC(=O)N(C)[C@H]3C/C=C\CCN(C3=O)[C@@H](Cc3ccc(C)cc3)C(=O)N(C)CC(=O)N[C@@H](CCc3ccc(C(F)(F)F)c(OC)c3)C(=O)N2C1` [PP1903] the IC50 [1] was 5.5 nM, the “HRAS/KRAS (KD ratio)” value [2] was “B (a compound having 3 or more and less than 10 is denoted as B)” and the “NRAS/KRAS (KD ratio)” value [3] was “A (a compound having 10 or more and less than 20 is denoted as A)”.

With `CCCN(C)C(=O)[C@@H]1CC(=O)N(C)[C@@H](C2CCC2)C(=O)N[C@@H]([C@@H](C)CC)C(=O)N(C)CC(=O)N(C)[C@H]2C/C=C\CCN(C2=O)[C@@H](Cc2ccc(C(F)(F)F)cc2)C(=O)N(C)CC(=O)N[C@@H](CCc2ccc(C(F)(F)F)c(OC)c2)C(=O)N2C[C@H](OCC)C[C@H]2C(=O)NC2(CCC2)C(=O)N(C)[C@@H](C2CCCC2)C(=O)N1C` [PP2023] the IC50 [1] was 10.5 nM, the “HRAS/KRAS (KD ratio)” value [2] was “B (a compound having 3 or more and less than 10 is denoted as B)” and the “NRAS/KRAS (KD ratio)” value [3] was “A (a compound having 10 or more and less than 20 is denoted as A)”.

`CCO[C@@H]1C[C@H]2C(=O)NC3(CCC3)C(=O)N(C)[C@@H](C3CCCC3)C(=O)N(C)[C@H](C(=O)N(C)CC)CC(=O)N(C)[C@@H](CC(F)(F)F)C(=O)N[C@@H]([C@@H](C)CC)C(=O)N(C)CC(=O)N(C)[C@H]3C/C=C\CCN(C3=O)[C@@H](Cc3ccc(C(F)(F)F)cc3)C(=O)N(C)CC(=O)N[C@@H](CCc3cc(F)c(C(F)(F)F)c(F)c3)C(=O)N2C1` [PP1701] was tested, and the IC50 [1] was 3.7 nM, the “HRAS/KRAS (KD ratio)” value [2] was “A (a compound having 10 or more and less than 20 is denoted as A)” and the “NRAS/KRAS (KD ratio)” value [3] was “A (a compound having 10 or more and less than 20 is denoted as A)”.

With `CCC[C@H]1C(=O)N[C@@H]([C@@H](C)CC)C(=O)N(C)CC(=O)N(C)[C@H]2C/C=C\CCN(C2=O)[C@@H](Cc2ccc(C)cc2)C(=O)N(C)CC(=O)N[C@@H](CCc2ccc(C(F)(F)F)c(Cl)c2)C(=O)N2C[C@H](C)C[C@H]2C(=O)NC2(CC(C)(C)C2)C(=O)N(C)[C@@H](C2CCCC2)C(=O)N(C)[C@H](C(=O)N(C)CC)CC(=O)N1C` [PP1894] the IC50 [1] was 15.9 nM, the “HRAS/KRAS (KD ratio)” value [2] was “A (a compound having 10 or more and less than 20 is denoted as A)” and the “NRAS/KRAS (KD ratio)” value [3] was “A (a compound having 10 or more and less than 20 is denoted as A)”.

In the case of `CCO[C@@H]1C[C@H]2C(=O)NC3(CCC3)C(=O)N(C)[C@@H](C3CCCC3)C(=O)N(C)[C@H](C(=O)N(C)CC)CC(=O)N(C)[C@@H](CC(C)C)C(=O)N[C@@H]([C@@H](C)CC)C(=O)N(C)CC(=O)N(C)[C@H]3C/C=C\CCN(C3=O)[C@@H](Cc3ccc(C)cc3)C(=O)N(C)CC(=O)N[C@@H](CCc3ccc(C(F)(F)F)c(OC)c3)C(=O)N2C1` [PP1910], the IC50 [1] was 9.7 nM, the “HRAS/KRAS (KD ratio)” value [2] was “B (a compound having 3 or more and less than 10 is denoted as B)” and the “NRAS/KRAS (KD ratio)” value [3] was “A (a compound having 10 or more and less than 20 is denoted as A)”.

In the case of `CCC[C@H]1C(=O)N[C@@H]([C@@H](C)CC)C(=O)N(C)CC(=O)N(C)[C@H]2C/C=C\CCN(C2=O)[C@@H](Cc2ccc(C)cc2)C(=O)N(C)CC(=O)N[C@@H](CCc2cc(F)c(C(F)(F)F)c(F)c2)C(=O)N2CCC[C@H]2C(=O)N(C)C2(CCC2)C(=O)N(C)[C@@H](C2CCCC2)C(=O)N(C)[C@H](C(=O)N(C)C)CC(=O)N1C` [PP1794], the IC50 [1] was 8.7 nM, the “HRAS/KRAS (KD ratio)” value [2] was “B (a compound having 3 or more and less than 10 is denoted as B)” and the “NRAS/KRAS (KD ratio)” value [3] was “A (a compound having 10 or more and less than 20 is denoted as A)”.

`CC[C@H](C)[C@@H]1NC(=O)[C@H](CC)N(C)C(=O)C[C@@H](C(=O)N(C)C)N(C)C(=O)[C@H](C2CCCC2)N(C)C(=O)C2(CCC2)N(C)C(=O)[C@@H]2CCCN2C(=O)[C@H](CCc2cc(F)c(C(F)(F)F)c(F)c2)NC(=O)CN(C)C(=O)[C@H](Cc2ccc(C)cc2)N2CC/C=C\C[C@@H](C2=O)N(C)C(=O)CN(C)C1=O` [PP1782] was tested, and the IC50 [1] was 6.7 nM, the “HRAS/KRAS (KD ratio)” value [2] was “B (a compound having 3 or more and less than 10 is denoted as B)” and the “NRAS/KRAS (KD ratio)” value [3] was “A (a compound having 10 or more and less than 20 is denoted as A)”.

For `CCO[C@@H]1C[C@H]2C(=O)NC(C)(C)C(=O)N(C)[C@@H](C3CCCC3)C(=O)N(C)[C@H](C(=O)N(C)CC)CC(=O)N(C)[C@@H](CC(C)C)C(=O)N[C@@H]([C@@H](C)CC)C(=O)N(C)CC(=O)N(C)[C@H]3C/C=C\CCN(C3=O)[C@@H](Cc3ccc(C(F)(F)F)cc3)C(=O)N(C)CC(=O)N[C@@H](CCc3cc(F)c(C(F)(F)F)c(F)c3)C(=O)N2C1` [PP1937], the IC50 [1] was 6.8 nM, the “HRAS/KRAS (KD ratio)” value [2] was “A (a compound having 10 or more and less than 20 is denoted as A)” and the “NRAS/KRAS (KD ratio)” value [3] was “A (a compound having 10 or more and less than 20 is denoted as A)”.

In the case of `CC[C@H](C)[C@@H]1NC(=O)[C@H](CC2CC2)N(C)C(=O)C[C@@H](C(=O)N(C)CC)N(C)C(=O)[C@H](C2CCCC2)N(C)C(=O)C2(CC(C)(C)C2)NC(=O)[C@@H]2C[C@H](C)CN2C(=O)[C@H](CCc2ccc(C(F)(F)F)c(OC)c2)NC(=O)CN(C)C(=O)[C@H](Cc2ccc(C)cc2)N2CC/C=C\C[C@@H](C2=O)N(C)C(=O)CN(C)C1=O` [PP1899], the IC50 [1] was 15.1 nM, the “HRAS/KRAS (KD ratio)” value [2] was “B (a compound having 3 or more and less than 10 is denoted as B)” and the “NRAS/KRAS (KD ratio)” value [3] was “A (a compound having 10 or more and less than 20 is denoted as A)”.
